Structures can show the parent of a compound that is named as a salt. Marks after values point to notes of the source that are not given here.

For one data set, the system named is zebrafish larvae. Conditions: 4 dpf zebrafish larvae, 8 h post-incubation; not more than 2 of 10 larvae with signs of toxicity. As for the experimental part: For the toxicological analysis, ten 4 dpf zebrafish larvae were used per well in 24-well culture plates. Incubation of each set of larvae at 28°C (±0.5) was done with SAIDs, NSAIDs and non-AIDs at concentrations ranging from 0.1 µM to 500 µM, with NPs at concentrations ranging from 1 µM to 500 µM, and with PEs at concentrations ranging from 1 ug/ml to 1 mg/ml. Controls containing only vehicle (1% DMSO) and untreated larvae were processed in parallel. Examination of each set of larvae was done under light microscopy (Carl Zeiss Stemi 2000C) each hour during a period of 8 h, and a final evaluation at 24 h post-incubation. At 8 h post-incubation, signs of toxicity, e.g. pericardial oedema, cardiovascular defects (arrhythmia or decreased circulation), balance defects (loss of normal posture), locomotor defects (decreased touch response), and ultimately death were scored for every drug, NP, and PE to further establish their maximum tolerated concentration (MTC). […] In this context, only non-toxic concentrations (below the MTC) were considered for further leukocyte migration analysis. All the toxicological assays were performed in duplicate using a different batch of zebrafish larvae for each set of experiments.
Toxicological assessment of all the samples analyzed in our study was done prior to the evaluation of their anti-inflammatory properties. The maximum tolerated concentrations (MTCs) were determined at 8 h post-treatment according to toxicological parameters including pericardial oedema, cardiovascular defects (arrhythmia or decreased circulation), balance defects (loss of normal posture), locomotor defects (decreased touch response), and death. […] Vehicle-treated (1% DMSO) and untreated larvae were processed in parallel to minimize experimental variability in this toxicological evaluation.

In data set [1] the test system is leukocyte migration in 4 dpf zebrafish larvae. The data set is described as follows: LPS-enhanced leukocyte migration assay (tail transection, MPO staining, RLM). The class given is in vivo, zebrafish (Danio rerio). On the set-up: Anti-inflammatory activity at MTC: concentration or dose not given beside the values. The method, then:
The lipopolysaccharide- (LPS−)enhanced leukocyte migration assay was carried out by triplicate for each sample in 4 dpf zebrafish larvae. The total incubation period of the assay was eight hours. Initially, a pre-incubation step (i.e. prior to tail transection) of one hour at 28°C (±0.5°C) was carried out in 24-well culture plates. Ten larvae per well were incubated in 1 ml of testing mix, consisting of a specific concentration of each sample and the amount of 0.3 X Danieau’s medium necessary to complete 1 ml. Immediately after pre-incubation, complete tail transection in each larva was performed. Zebrafish larvae were first anesthetized by immersion in 0.3 X Danieau’s medium containing 70 µg/ml tricaine (ethyl 3-aminobenzoate, Sigma-Aldrich) and then tail transection near the tip was performed with a sterile scalpel under light microscopy (Carl Zeiss Stemi 2000C). Larvae were then placed in fresh 0.3 X Danieau’s medium without anesthetic for a few minutes until the final incubation period. For the last step, a new testing mix was prepared including 10 µg/ml lipopolysaccharides from Salmonella typhosa ATCC 10749 (LPS, Sigma-Aldrich Chemical) to enhance leukocyte migration to the injured zone. The final incubation step (i.e. subsequent to tail transection) of the injured larvae in contact with the pro-inflammatory agent and with the specific concentration of each SAID, NSAID, non-AID, NP, and PE at 28°C (±0.5°C) was done for 7 h. Within this period, sporadic evaluations of the larvae were done to examine their viability during the time of the assay. Larvae that completed the incubation time were fixed overnight in 4% formaldehyde (Sigma-Aldrich) at 4°C. Controls containing only the vehicle (1% DMSO) were processed in parallel.
Fixed larvae were gently washed twice with 1 X PBST (PBS-1X phosphate buffered saline, Gibco +0.1% Tween 20) for 5–10 min and then incubated at room temperature in 1 ml of freshly prepared Leucognost® Pox (Merck) staining solution, made according the directions of the provider. Observation of stained black-brown cells (leukocytes) in the larvae was possible within 15 min of incubation. Evaluation of the migrating leukocytes, particularly surrounding the injured region, in each larva was done under light microscopy (Carl Zeiss Stemi 2000C) and scoring was done using a migration scale established to semi-quantify the amount of migrating leukocytes on one side of each larva.
The average of the value achieved for each of the ten larvae tested in triplicate for one sample is expressed as relative leukocyte migration (RLM) according to the formula: RLM = leukocyte migration of the larva/average leukocyte migration of the negative control.
To determine the extent of leukocyte migration generated after exposing 4 dpf zebrafish larvae to mechanical and biological stimuli – namely tail transection and LPS exposure – we used a commercially available whole-mount cytochemical staining method (Leucognost® Pox, Merck) to detect MPO activity in situ. To minimize the number of handling steps post-staining, this method was chosen over the alternative myeloperoxidase stain Sudan Black B [26], [27], which also stains phospholipids, neural fats and sterols. In our experiments, we visualized migrating leukocytes in 4 dpf larvae at 8 h post-injury. Microscopic evaluations of MPO-stained larvae allowed us to score the degree of leukocyte migration at the trauma site according to a comparative scale that we established particularly for this purpose (Figure 2). Myeloperoxidase-positive cells, appearing as black-brown dots, were counted in a segment at the edge of the tail on one side of every larva (Figure 2). The number of leukocytes was then graded according to the comparative scale and subsequently converted into a relative value expressed as the relative leukocyte migration (RLM) activity for the total number or larvae for one sample.

Setting [2] is: 200 µM, tail cut + 10 µg/ml LPS, relative to 1% DMSO control.
Where [3] appears, read: 0.1 µM, tail cut + 10 µg/ml LPS, relative to 1% DMSO control.
The mark [4] stands for this setting: Danio rerio, Leukocyte, 8 h, tail cut + 10 µg/ml LPS, relative to 1% DMSO control.
Where [5] appears, read: Danio rerio, Leukocyte, 8 h, 30 µM, tail cut + 10 µg/ml LPS, relative to 1% DMSO control.

Take `Nc1nc(N)nc(N)n1` [melamine]: the “Maximum tolerated concentration (MTC)” value with zebrafish larvae stood at 200 µM. Moreover, the “Relative leukocyte migration (RLM)” value in data set [1] (setting [2]) stood at 0.85.

`CN1C(C(=O)Nc2ccccn2)=C(O)c2ccccc2S1(=O)=O` [piroxicam]: the “Maximum tolerated concentration (MTC)” value in the data set with zebrafish larvae amounted to 100 µM. Moreover, the “Relative leukocyte migration (RLM)” value in data set [1] (setting [3]) was 0.85. Besides, the response vs control in vivo at 100 µM in data set [1] (setting [4]) was determined as 3%.

With `O=C(O)Cc1ccccc1Nc1c(Cl)cccc1Cl` [diclofenac], the “Maximum tolerated concentration (MTC)” value with zebrafish larvae amounted to 10 µM. Moreover, the “Relative leukocyte migration (RLM)” value in data set [1] (setting [3]) worked out at 0.69. The response vs control in vivo at 10 µM in data set [1] (setting [4]) stood at 13%.

Turning to `C[C@]1(OC(=O)/C=C/c2ccccc2)C[C@@H](O)[C@]2(O)C=CO[C@@H](O[C@@H]3O[C@H](CO)[C@@H](O)[C@H](O)[C@H]3O)[C@@H]21` [Harpagoside, harpagoside], the “Maximum tolerated concentration (MTC)” value in the data set on zebrafish larvae is reported as 300 µM. The “Leukocyte migration (RLM)” value in data set [1] (300 µM, tail cut + 10 µg/ml LPS, relative to 1% DMSO control) is 0.12 ^*. In addition, in data set [1] (setting [4]), the response vs control in vivo at 1 µM was determined as 48%, the response vs control in vivo at 10 µM was 29% and the response vs control in vivo at 100 µM is 15%. For the same compound, in data set [1] (setting [5]), the response vs control in vivo at 30 µM amounted to 30%. Moreover, the response vs control in vivo at 300 µM in data set [1] (Danio rerio, Leukocyte, 8 h, 300 µM, tail cut + 10 µg/ml LPS, relative to 1% DMSO control) came to 12%.

Take `O=C1C[C@@H](c2ccc(O)cc2)Oc2cc(O)cc(O)c21` [Naringenin, naringenin]: the “Maximum tolerated concentration (MTC)” value in the data set with zebrafish larvae worked out at 30 µM. In addition, in data set [1] (30 µM, tail cut + 10 µg/ml LPS, relative to 1% DMSO control), the “Leukocyte migration (RLM)” value is recorded as 0.37 ^**. In addition, in data set [1] (setting [4]), the response vs control in vivo at 1 µM stood at 67% and the response vs control in vivo at 10 µM is 42%. Moreover, the response vs control in vivo at 30 µM in data set [1] (setting [5]) is 37%. The “Anti-inflammatory activity at MTC” value in data set [1] (at MTC, (1−RLM)x100) was 63%. For the same compound, the “RLM (zebrafish-based assay)” value in data set [1] (at the MTC given in Table 2) stood at 0.37.

On to `CN(C)CCC=C1c2ccccc2COc2ccccc21` [doxepin, doxepin hydrochloride], for which, in data set [1] (setting [5]), the response vs control in vivo at 30 µM came to 71%.

Turning to `C[C@]12C=CC(=O)C=C1CC[C@@H]1[C@@H]2[C@@H](O)C[C@@]2(C)[C@H]1CC[C@]2(O)C(=O)CO` [prednisolone], the results for the “Relative leukocyte migration (RLM)” value in data set [1] (setting [3]) and in data set [1] (setting [2]) were 0.66 and 0.07, respectively.

As to `NC12CC3CC(CC(C3)C1)C2` [amantadine, amantadine hydrochloride], in the data set with zebrafish larvae, the “Maximum tolerated concentration (MTC)” value is on record as 200 µM. Besides, the “Relative leukocyte migration (RLM)” value in data set [1] (setting [2]) is listed as 0.82.

Regarding `COc1ccc2c(c1)c(CC(=O)O)c(C)n2C(=O)c1ccc(Cl)cc1` [indomethacin], the “Maximum tolerated concentration (MTC)” value in the data set with zebrafish larvae stood at 200 µM. Further, the “Relative leukocyte migration (RLM)” value turned out to be 0.72 in data set [1] (setting [3]) and 0.09 in data set [1] (setting [2]).

Take `C[C@@H]1C[C@H]2[C@@H]3CCC4=CC(=O)C=C[C@]4(C)[C@@]3(F)[C@@H](O)C[C@]2(C)[C@@]1(O)C(=O)CO` [dexamethasone]: the “Relative leukocyte migration (RLM)” value in data set [1] (setting [3]) stood at 0.81; in data set [1] (setting [2]) it was 0.06.

For the origin of these results see PMC3790782, “Optimization and Pharmacological Validation of a Leukocyte Migration Assay in Zebrafish Larvae for the Rapid In Vivo Bioactivity Analysis of Anti-Inflammatory Secondary Metabolites” (PLoS ONE, 2013).
